Source: the supplement of paper PMC10307832

Experiments:
Assay in all cases: relative viability (nuclei count vs DMSO), 5 days (fraction); higher = more cells survive
LK-2 = tested on: LK-2
Summary of the method: (§1)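 Lung cancer cell lines in 1536-well plates were dosed by pin tool the day after seeding, either with one drug alone or with a fixed anchor-drug dose plus five library-drug doses (not always all listed) in √10 steps. After 5 days, cells were fixed and their nuclei stained in one step (final 0.05% Triton X-100, 1% formaldehyde, 1 ug/ml Hoechst), then counted on 4× images. Relative viability is the nuclei count in treated wells divided by that in vehicle wells. Values are medians of duplicate plates.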

HCC-827 = tested on: HCC-827
Summary of the method: as §1

COR-L 105 = tested on: COR-L 105
Summary of the method: as §1

NCI-H661 = tested on: NCI-H661
Summary of the method: as §1

EKVX = tested on: EKVX
Summary of the method: as §1

201T = tested on: 201T
Summary of the method: as §1

NCI-H1734 = tested on: NCI-H1734
Summary of the method: as §1

COR-L23 = tested on: COR-L23
Summary of the method: as §1

HCC-15 = tested on: HCC-15
Summary of the method: as §1

NCI-H2347 = tested on: NCI-H2347
Summary of the method: as §1

HCC-78 = tested on: HCC-78
Summary of the method: as §1

NCI-H1944 = tested on: NCI-H1944
Summary of the method: as §1

RERF-LC-KJ = tested on: RERF-LC-KJ
Summary of the method: as §1

HCC-366 = tested on: HCC-366
Summary of the method: as §1

PC-3 [JPC-3] = tested on: PC-3 [JPC-3]
Summary of the method: as §1

LC-2-ad = tested on: LC-2-ad
Summary of the method: as §1

NCI-H1755 = tested on: NCI-H1755
Summary of the method: as §1

SW 900 = tested on: SW 900
Summary of the method: as §1

NCI-H1915 = tested on: NCI-H1915
Summary of the method: as §1

NCI-H1650 = tested on: NCI-H1650
Summary of the method: as §1

NCI-H1648 = tested on: NCI-H1648
Summary of the method: as §1

LU99A = tested on: LU99A
Summary of the method: as §1

NCI-H441 = tested on: NCI-H441
Summary of the method: as §1

BEN = tested on: BEN
Summary of the method: as §1

C=C1C(=O)O[C@@H](CCCCCCCC)[C@@H]1C(=O)O [C-75] + CC(=O)Nc1cccc(-n2c(=O)n(C3CC3)c(=O)c3c(Nc4ccc(I)cc4F)n(C)c(=O)c(C)c32)c1 [Trametinib] (partner 0.02 µM)
relative viability (LK-2; first compound 0.08 µM): 0.719 | relative viability (LK-2; first compound 0.253 µM): 1.31 | relative viability (LK-2; first compound 0.8 µM): 0.822 | relative viability (LK-2; first compound 2.53 µM): 0.521 | relative viability (LK-2; first compound 8 µM): 0.575 | relative viability (HCC-827; first compound 0.253 µM): 0.786 | relative viability (HCC-827; first compound 0.8 µM): 0.558 | relative viability (HCC-827; first compound 8 µM): 0.55 | relative viability (COR-L 105; first compound 0.08 µM): 0.425 | relative viability (COR-L 105; first compound 0.253 µM): 0.458 | relative viability (COR-L 105; first compound 0.8 µM): 0.428 | relative viability (COR-L 105; first compound 2.53 µM): 0.427 | relative viability (COR-L 105; first compound 8 µM): 0.497 | relative viability (NCI-H661; first compound 0.08 µM): 0.524 | relative viability (NCI-H661; first compound 0.253 µM): 0.612 | relative viability (NCI-H661; first compound 0.8 µM): 0.516 | relative viability (NCI-H661; first compound 2.53 µM): 0.429 | relative viability (NCI-H661; first compound 8 µM): 0.458 | relative viability (EKVX; first compound 0.08 µM): 0.344 | relative viability (EKVX; first compound 0.253 µM): 0.263 | relative viability (EKVX; first compound 0.8 µM): 0.31 | relative viability (EKVX; first compound 8 µM): 0.355 | relative viability (201T; first compound 0.08 µM): 0.716 | relative viability (201T; first compound 0.253 µM): 0.824 | relative viability (201T; first compound 0.8 µM): 0.731 | relative viability (201T; first compound 2.53 µM): 0.692 | relative viability (201T; first compound 8 µM): 0.763 | relative viability (NCI-H1734; first compound 0.08 µM): 0.664 | relative viability (NCI-H1734; first compound 0.253 µM): 0.78 | relative viability (NCI-H1734; first compound 0.8 µM): 0.664 | relative viability (NCI-H1734; first compound 2.53 µM): 0.524 | relative viability (NCI-H1734; first compound 8 µM): 0.691 | relative viability (COR-L23; first compound 0.08 µM): 0.636 | relative viability (COR-L23; first compound 0.253 µM): 0.58 | relative viability (COR-L23; first compound 0.8 µM): 0.562 | relative viability (COR-L23; first compound 2.53 µM): 0.485 | relative viability (COR-L23; first compound 8 µM): 0.569 | relative viability (HCC-15; first compound 0.08 µM): 0.387 | relative viability (HCC-15; first compound 0.253 µM): 0.366 | relative viability (HCC-15; first compound 0.8 µM): 0.375 | relative viability (HCC-15; first compound 2.53 µM): 0.33 | relative viability (HCC-15; first compound 8 µM): 0.426 | relative viability (NCI-H2347; first compound 0.08 µM): 0.296 | relative viability (NCI-H2347; first compound 0.253 µM): 0.193 | relative viability (NCI-H2347; first compound 0.8 µM): 0.317 | relative viability (NCI-H2347; first compound 2.53 µM): 0.26 | relative viability (NCI-H2347; first compound 8 µM): 0.365 | relative viability (HCC-78; first compound 0.08 µM): 0.776 | relative viability (HCC-78; first compound 0.253 µM): 0.935 | relative viability (HCC-78; first compound 0.8 µM): 0.782 | relative viability (HCC-78; first compound 8 µM): 0.62 | relative viability (NCI-H1944; first compound 0.08 µM): 0.397 | relative viability (NCI-H1944; first compound 0.253 µM): 0.465 | relative viability (NCI-H1944; first compound 0.8 µM): 0.361 | relative viability (NCI-H1944; first compound 2.53 µM): 0.367 | relative viability (NCI-H1944; first compound 8 µM): 0.371 | relative viability (RERF-LC-KJ; first compound 0.08 µM): 0.874 | relative viability (RERF-LC-KJ; first compound 0.253 µM): 0.945 | relative viability (RERF-LC-KJ; first compound 0.8 µM): 0.925 | relative viability (RERF-LC-KJ; first compound 2.53 µM): 0.918 | relative viability (RERF-LC-KJ; first compound 8 µM): 0.866 | relative viability (HCC-366; first compound 0.08 µM): 0.356 | relative viability (HCC-366; first compound 0.253 µM): 0.426 | relative viability (HCC-366; first compound 0.8 µM): 0.327 | relative viability (HCC-366; first compound 2.53 µM): 0.285 | relative viability (HCC-366; first compound 8 µM): 0.326 | relative viability (PC-3 [JPC-3]; first compound 0.08 µM): 0.744 | relative viability (PC-3 [JPC-3]; first compound 0.253 µM): 0.651 | relative viability (PC-3 [JPC-3]; first compound 0.8 µM): 0.657 | relative viability (PC-3 [JPC-3]; first compound 2.53 µM): 0.64 | relative viability (PC-3 [JPC-3]; first compound 8 µM): 0.915 | relative viability (LC-2-ad; first compound 0.08 µM): 0.883 | relative viability (LC-2-ad; first compound 0.253 µM): 0.954 | relative viability (LC-2-ad; first compound 0.8 µM): 0.832 | relative viability (LC-2-ad; first compound 2.53 µM): 0.861 | relative viability (LC-2-ad; first compound 8 µM): 0.926 | relative viability (NCI-H1755; first compound 0.08 µM): 0.763 | relative viability (NCI-H1755; first compound 0.253 µM): 0.748 | relative viability (NCI-H1755; first compound 0.8 µM): 0.76 | relative viability (NCI-H1755; first compound 2.53 µM): 0.677 | relative viability (NCI-H1755; first compound 8 µM): 0.702 | relative viability (SW 900; first compound 0.08 µM): 1.01 | relative viability (SW 900; first compound 0.253 µM): 0.936 | relative viability (SW 900; first compound 0.8 µM): 0.848 | relative viability (SW 900; first compound 2.53 µM): 0.71 | relative viability (SW 900; first compound 8 µM): 0.829 | relative viability (NCI-H1915; first compound 0.08 µM): 0.323 | relative viability (NCI-H1915; first compound 0.253 µM): 0.288 | relative viability (NCI-H1915; first compound 0.8 µM): 0.32 | relative viability (NCI-H1915; first compound 2.53 µM): 0.273 | relative viability (NCI-H1915; first compound 8 µM): 0.359 | relative viability (NCI-H1650; first compound 0.08 µM): 0.462 | relative viability (NCI-H1650; first compound 0.253 µM): 0.553 | relative viability (NCI-H1650; first compound 0.8 µM): 0.602 | relative viability (NCI-H1650; first compound 8 µM): 0.555 | relative viability (NCI-H1648; first compound 0.08 µM): 0.435 | relative viability (NCI-H1648; first compound 0.253 µM): 0.658 | relative viability (NCI-H1648; first compound 0.8 µM): 0.447 | relative viability (NCI-H1648; first compound 8 µM): 0.443 | relative viability (LU99A; first compound 0.08 µM): 0.526 | relative viability (LU99A; first compound 0.253 µM): 0.528 | relative viability (LU99A; first compound 0.8 µM): 0.475 | relative viability (LU99A; first compound 2.53 µM): 0.562 | relative viability (LU99A; first compound 8 µM): 0.527 | relative viability (NCI-H441; first compound 0.08 µM): 0.569 | relative viability (NCI-H441; first compound 0.253 µM): 0.533 | relative viability (NCI-H441; first compound 0.8 µM): 0.406 | relative viability (NCI-H441; first compound 8 µM): 0.548 | relative viability (BEN; first compound 0.08 µM): 0.993 | relative viability (BEN; first compound 0.253 µM): 1.2 | relative viability (BEN; first compound 0.8 µM): 0.995 | relative viability (BEN; first compound 2.53 µM): 1.14 | relative viability (BEN; first compound 8 µM): 0.989
